The test system of experiment [1] is Giardia intestinalis. The experiment in a line: Antiprotozoal activity against Giardia lamblia IMSS: 8909:1 trophozoites assessed as growth inhibition compound treated for 48 hrs measured 48 hrs post wash-out by MTT assay. Type of experiment: functional, organism-based. Conditions: Giardia duodenalis, IMSS: 8909:1, 48 h. A general note: Tetrazolium assays rely on reduction of a dye to a coloured formazan, in cell work by metabolically active cells.

The subject of experiment [2] is Entamoeba histolytica. The experiment in a line: Antiprotozoal activity against Entamoeba histolytica HM-1:IMSS trophozoites assessed as growth inhibition compound treated for 48 hrs measured 48 hrs post wash-out by MTT assay. Type of experiment: functional, organism-based.

These results are taken from ChEMBL document CHEMBL3352419, “Antiprotozoal activity of 8-acyl and 8-alkyl incomptine A analogs” (Bioorg Med Chem Lett, 2014).

≈ marks a conversion by molar mass, not a printed value.

As usually defined, the IC50 is the concentration at which inhibition is half-maximal.

On to `C=C1C(=O)O[C@H]2/C=C(C)\C=C/[C@H]3O[C@]3(C)C[C@@H](OC(C)=O)[C@@H]12`, for which the IC50 in experiment [1] was found to be 18.1 mg/L (≈ 59.5 µM); in experiment [2] it was 2.6 mg/L (≈ 8.54 µM).
For the molecule `C=C1C(=O)O[C@H]2/C=C(C)\C=C/[C@H]3O[C@]3(C)C[C@@H](O)[C@@H]12`, the IC50 was 257 mg/L (≈ 979 µM) in experiment [1] and 138 mg/L (≈ 525 µM) in experiment [2].
On the same counts, the results for `C=C1C(=O)O[C@H]2/C=C(C)\C=C/[C@H]3O[C@]3(C)C[C@@H](OC(=O)C(F)(F)F)[C@@H]12` are 43.3 mg/L (≈ 121 µM) and 37.7 mg/L (≈ 105 µM).
On the same counts, the results for `C=C1C(=O)O[C@H]2/C=C(C)\C=C/[C@H]3O[C@]3(C)C[C@@H](OC(=O)CC)[C@@H]12` are 68.8 mg/L (≈ 216 µM) and 51.6 mg/L (≈ 162 µM).
On the same counts, the results for `C=C1C(=O)O[C@H]2/C=C(C)\C=C/[C@H]3O[C@]3(C)C[C@@H](OC(=O)CCC)[C@@H]12` are 51.7 mg/L (≈ 156 µM) and 49.1 mg/L (≈ 148 µM).
With `C=C1C(=O)O[C@H]2/C=C(C)\C=C/[C@H]3O[C@]3(C)C[C@@H](OC(=O)C(C)C)[C@@H]12`, the half-maximal inhibitory concentration (IC50) in experiment [1] was determined as 62.2 mg/L (≈ 187 µM); in experiment [2], 52.7 mg/L (≈ 159 µM).
On the same counts, the results for `C=C1C(=O)O[C@H]2/C=C(C)\C=C/[C@H]3O[C@]3(C)C[C@@H](OC(=O)CCCC)[C@@H]12` are 58.3 mg/L (≈ 168 µM) and 51.7 mg/L (≈ 149 µM).
On the same counts, the results for `C=C(C)C(=O)O[C@@H]1C[C@@]2(C)O[C@@H]2/C=C\C(C)=C/[C@@H]2OC(=O)C(=C)[C@@H]21` are 44.2 mg/L (≈ 134 µM) and 32.7 mg/L (≈ 99 µM).
On the same counts, the results for `C=C1C(=O)O[C@H]2/C=C(C)\C=C/[C@H]3O[C@]3(C)C[C@@H](OC)[C@@H]12` are 35.2 mg/L (≈ 127 µM) and 29.4 mg/L (≈ 106 µM).
Regarding `C=C1C(=O)O[C@H]2/C=C(C)\C=C/[C@H]3O[C@]3(C)C[C@@H](OCC)[C@@H]12`, the values for the IC50 in experiment [1] and in experiment [2] were 43.8 mg/L (≈ 151 µM) and 31.9 mg/L (≈ 110 µM), respectively.
As for `C=C1C(=O)O[C@H]2/C=C(C)\C=C/[C@H]3O[C@]3(C)C[C@@H](OCCC)[C@@H]12`, the IC50 in experiment [1] was found to be 31.2 mg/L (≈ 103 µM); in experiment [2], 35.9 mg/L (≈ 118 µM).
Taken in the same sequence, the figures for `C=C1C(=O)O[C@H]2/C=C(C)\C=C/[C@H]3O[C@]3(C)C[C@@H](OC(C)C)[C@@H]12` were 32.7 mg/L (≈ 107 µM) and 28.7 mg/L (≈ 94.3 µM).
Take `C=C1C(=O)O[C@H]2/C=C(C)\C=C/[C@H]3O[C@]3(C)CC(=O)[C@@H]12`: the IC50 in experiment [1] was found to be 30.6 mg/L (≈ 118 µM); in experiment [2] it was 34.9 mg/L (≈ 134 µM).
